Test results published in patent US20240368078A1, “ARYL HETEROCYCLIC COMPOUNDS AS Kv1.3 POTASSIUM SHAKER CHANNEL BLOCKERS” (D.E. SHAW RESEARCH, LLC, priority 2021, published 2024).

Experiments:
Kv1.3 potassium channel = Kv1.3 potassium channel (Homo sapiens (Human), UniProt P22001); experiment: Kv1.3 potassium channel blocker activity, automated whole-cell patch clamp in CHO-K1 cells stably expressing Kv1.3; assay type: cell-based; details: Patchliner patch clamp
Method: Example 21. Evaluation of Kv1.3 Potassium Channel Blocker Activities
This assay is used to evaluate the disclosed compounds' activities as Kv1.3 potassium channel blockers.
CHO-K1 cells stably expressing Kv1.3 were grown in DMEM containing 10% heat-inactivated FBS, 1 mM sodium pyruvate, 2 mM L-glutamine, and G418 (500 μg/ml). Cells were grown in culture flasks at 37° C. in a 5% C02-humidified incubator.
(§1) The cells were bathed in an extracellular solution containing 140 mM NaCl, 4 mM KCl, 2 mM CaCl2), 1 mM MgCl2, 5 mM glucose, 10 mM HEPES; pH adjusted to 7.4 with NaOH; 295-305 mOsm. The internal solution contained 50 mM KCl, 10 mM NaCl, 60 mM KF, 20 mM EGTA, 10 mM HEPES; pH adjusted to 7.2 with KOH; 285 mOsm. All compounds were dissolved in DMSO at 30 mM. Compound stock solutions were freshly diluted with external solution to concentrations of 30 nM, 100 nM, 300 nM, 1 μM, 3 μM, 10 μM, 30 μM and 100 μM. The highest content of DMSO (0.3%) was present in 100 μM.
The currents were evoked by applying 100 ms depolarizing pulses from −90 mV (holding potential) to +40 mV were applied with 0.1 Hz frequency. Control (compound-free) and compound pulse trains for each compound concentration applied contained 20 pulses. 10-second breaks were used between pulse trains (see Table A below).
Whole-cell current recordings and compound application were enabled by means of an automated patch clamp platform Patchliner (Nanion Technologies GmbH). EPC 10 patch clamp amplifier (HEKA Elektronik Dr. Schulze GmbH) along with Patchmaster software (HEKA Elektronik Dr. Schulze GmbH) was used for data acquisition. Data were sampled at 10 kHz without filtering. Passive leak currents were subtracted online using a P/4 procedure (HEKA Elektronik Dr. Schulze GmbH). Increasing compound concentrations were applied consecutively to the same cell without washouts in between. Total compound incubation time before the next pulse train was not longer than 10 seconds. Peak current inhibition was observed during compound equilibration.
(§2) AUC and peak values were obtained with Patchmaster (HEKA Elektronik Dr. Schulze GmbH). To determine IC50, the last single pulse in the pulse train corresponding to a given compound concentration was used. Obtained AUC and peak values in the presence of compound were normalized to control values in the absence of compound. Using Origin (OridinLab), IC50 was derived from data fit to Hill equation: Icompound/Icontrol=(100-A)/(1+([compound]/IC50)nH)+A, where IC50 value is the concentration at which current inhibition is half-maximal, [compound] is the applied compound concentration, A is the fraction of current that is not blocked and nH is the Hill coefficient.

hERG channel = hERG channel (Homo sapiens (Human), UniProt Q12809); experiment: hERG electrophysiology, automated whole-cell patch clamp in CHO-K1 cells stably expressing hERG; assay type: cell-based; details: Patchliner patch clamp
Method: Example 22. Evaluation of hERG Activities
This assay is used to evaluate the disclosed compounds's inhibition activities against the hERG channel.
This assay is used to evaluate the disclosed compounds' inhibition activities against the hERG channel.
CHO-K1 cells stably expressing hERG were grown in Ham's F-12 Medium with glutamine containing 10% heat-inactivated FBS, 1% penicillin/streptomycin, hygromycin (100 μg/ml) and G418 (100 μg/ml). Cells were grown in culture flasks at 37° C. in a 5% CO2— humidified incubator.
as §1, with “Glucose,” for “glucose,”
The voltage protocol (see Table B) was designed to simulate voltage changes during a cardiac action potential with a 300 ms depolarization to +20 mV (analogous to the plateau phase of the cardiac action potential), a repolarization for 300 ms to −50 mV (inducing a tail current) and a final step to the holding potential of −80 mV. The pulse frequency was 0.3 Hz. Control (compound-free) and compound pulse trains for each compound concentration applied contained 70 pulses.
Whole-cell current recordings and compound application were enabled by means of an automated patch clamp platform Patchliner (Nanion). EPC 10 patch clamp amplifier (HEKA) along with Patchmaster software (HEKA Elektronik Dr. Schulze GmbH) was used for data acquisition. Data were sampled at 10 kHz without filtering. Increasing compound concentrations were applied consecutively to the same cell without washouts in between.
as §2, with “PEAK” for “peak”, “IC50” for “IC50,”, “Icompound/Icontrol=(100−A)/(1+([compound]/IC50)nH)+A,” for “Icompound/Icontrol=(100-A)/(1+([compound]/IC50)nH)+A,”, “IC50” for “IC50 value”

hERG channel, sequence (Q12809 whole entry): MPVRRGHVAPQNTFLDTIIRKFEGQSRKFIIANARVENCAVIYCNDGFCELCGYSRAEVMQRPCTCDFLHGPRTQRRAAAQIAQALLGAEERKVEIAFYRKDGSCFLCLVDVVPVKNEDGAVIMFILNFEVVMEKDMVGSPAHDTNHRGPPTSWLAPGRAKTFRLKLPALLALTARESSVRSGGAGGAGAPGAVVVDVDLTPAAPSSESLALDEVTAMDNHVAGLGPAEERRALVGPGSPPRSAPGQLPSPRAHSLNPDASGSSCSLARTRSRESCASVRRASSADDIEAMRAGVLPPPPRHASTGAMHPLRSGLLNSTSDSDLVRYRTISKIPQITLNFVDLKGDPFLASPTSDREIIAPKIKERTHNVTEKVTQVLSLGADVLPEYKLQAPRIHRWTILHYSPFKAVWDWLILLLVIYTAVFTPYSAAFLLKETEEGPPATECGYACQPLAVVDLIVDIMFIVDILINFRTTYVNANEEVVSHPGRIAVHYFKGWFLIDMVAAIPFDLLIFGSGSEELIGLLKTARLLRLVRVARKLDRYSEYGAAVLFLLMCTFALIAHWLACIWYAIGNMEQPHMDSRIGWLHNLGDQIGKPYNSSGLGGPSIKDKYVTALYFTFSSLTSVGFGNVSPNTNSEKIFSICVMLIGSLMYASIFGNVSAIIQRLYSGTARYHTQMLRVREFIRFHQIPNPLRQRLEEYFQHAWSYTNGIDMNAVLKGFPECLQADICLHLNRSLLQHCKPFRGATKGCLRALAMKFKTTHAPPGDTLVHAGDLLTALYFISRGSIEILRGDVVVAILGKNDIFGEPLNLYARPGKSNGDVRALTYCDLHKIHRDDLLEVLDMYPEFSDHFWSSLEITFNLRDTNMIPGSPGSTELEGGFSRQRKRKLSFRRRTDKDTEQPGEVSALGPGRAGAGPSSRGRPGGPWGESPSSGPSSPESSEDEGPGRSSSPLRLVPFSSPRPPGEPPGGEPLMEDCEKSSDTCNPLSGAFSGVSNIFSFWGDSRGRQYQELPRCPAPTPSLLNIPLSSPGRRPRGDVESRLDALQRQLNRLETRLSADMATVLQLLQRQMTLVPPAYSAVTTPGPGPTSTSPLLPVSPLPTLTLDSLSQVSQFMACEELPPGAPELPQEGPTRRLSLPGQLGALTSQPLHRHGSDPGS
Kv1.3 potassium channel, sequence (P22001 whole entry): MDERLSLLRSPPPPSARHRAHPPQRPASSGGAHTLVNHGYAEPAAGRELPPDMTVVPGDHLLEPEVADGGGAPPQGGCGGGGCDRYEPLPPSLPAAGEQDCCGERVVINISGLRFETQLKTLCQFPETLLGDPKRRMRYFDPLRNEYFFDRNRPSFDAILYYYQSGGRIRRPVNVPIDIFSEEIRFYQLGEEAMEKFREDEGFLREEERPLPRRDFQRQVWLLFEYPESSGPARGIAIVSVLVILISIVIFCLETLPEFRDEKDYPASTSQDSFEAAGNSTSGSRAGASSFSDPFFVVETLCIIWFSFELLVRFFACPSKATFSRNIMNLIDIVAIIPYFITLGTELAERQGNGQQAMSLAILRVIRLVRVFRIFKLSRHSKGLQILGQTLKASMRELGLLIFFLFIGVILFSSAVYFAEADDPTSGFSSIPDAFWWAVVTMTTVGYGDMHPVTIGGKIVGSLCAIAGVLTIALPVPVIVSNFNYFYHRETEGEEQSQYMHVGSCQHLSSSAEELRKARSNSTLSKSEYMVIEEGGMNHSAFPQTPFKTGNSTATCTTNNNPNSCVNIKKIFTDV

IC50 (Kv1.3 potassium channel) | Structure (SMILES) | IC50 (hERG channel)
< 1000 nM | CC[C@@H](C(N)=O)[C@@H]1CN[C@@H](c2c(O)ccc(Cl)c2Cl)C1 (single isomer, unassigned) [Compound 73] | –
< 100 nM | C[C@H](CO)NC(=O)C[C@H]1CN[C@@H](c2c(O)ccc(Cl)c2Cl)C1 [Compound 63, 2-((3S,5R)-5-(2,3-dichloro-6-hydroxyphenyl)pyrrolidin-3-yl)-N-((R)-1-hydroxypropan-2-yl)acetamide] | > 100000 nM
< 1000 nM | COC[C@@H](C(N)=O)[C@H]1CN[C@@H](c2c(O)ccc(Cl)c2Cl)C1 (single isomer, unassigned) [Compound 75] | > 100000 nM
< 1000 nM | O=C(CO)NC[C@H]1CN[C@@H](c2c(O)ccc(Cl)c2Cl)C1 [Compound 49, N-(((3R,5R)-5-(2,3-dichloro-6-hydroxyphenyl)pyrrolidin-3-yl)methyl)-2-hydroxyacetamide] | > 100000 nM
< 100 nM | C[C@@H](O)CNC(=O)C[C@H]1CN[C@@H](c2c(O)ccc(Cl)c2Cl)C1 [Compound 64, 2-((3S,5R)-5-(2,3-dichloro-6-hydroxyphenyl)pyrrolidiin-3-yl)-N-((R)-2-hydroxypropyl)acetamide] | > 100000 nM
< 100 nM | C[C@H](C(N)=O)[C@H]1CN[C@@H](c2c(O)ccc(Cl)c2Cl)C1 (single isomer, unassigned) [Compound 45] | > 100000 nM
< 1000 nM | CC(C)(C(N)=O)[C@@H]1CN[C@@H](c2c(O)ccc(Cl)c2Cl)C1 [Compound 51, 2-[(3R,5R)-5-(2,3-dichloro-6-hydroxyphenyl)pyrrolidin-3-yl]-2-methylpropanamide] | –
< 100 nM | O=C(C[C@H]1CN[C@@H](c2c(O)ccc(Cl)c2Cl)C1)N1CC(O)(CO)C1 [Compound 43, 2-((3S,5R)-5-(2,3-dichloro-6-hydroxyphenyl)pyrrolidin-3-yl)-1-(3-hydroxy-3-(hydroxymethyl)azetidin-1-yl)ethan-1-one] | > 100000 nM
< 1000 nM | NC(=O)[C@@H](C1CC1)[C@H]1CN[C@@H](c2c(O)ccc(Cl)c2Cl)C1 (single isomer, unassigned) [Compound 79] | –
< 1000 nM | NC(=O)C[C@@H]1CC[C@H](c2c(O)ccc(Cl)c2Cl)N1 [Compound 53, 2-((2S,5R)-5-(2,3-dichloro-6-hydroxyphenyl)pyrrolidin-2-yl)acetamide] | > 100000 nM
< 1000 nM | O=C(C[C@H]1CN[C@@H](c2c(O)ccc(Cl)c2Cl)C1)N1CCC(O)CC1 [Compound 57, 2-((3S,5R)-5-(2,3-dichloro-6-hydroxyphenyl)pyrrolidin-3-yl)-1-(4-hydroxypiperidin-1-yl)ethan-1-one] | –
< 1000 nM | O=C(C[C@H]1CN[C@@H](c2c(O)ccc(Cl)c2Cl)C1)N1CC(CO)(CO)C1 [Compound 70, 1-(3,3-bis(hydroxymethyl)azetidin-1-yl)-2-((3S,5R)-5-(2,3-dichloro-6-hydroxyphenyl)pyrrolidin-3-yl)ethan-1-one] | –
< 100 nM | CNC(=O)C[C@H]1CN[C@@H](c2c(O)ccc(Cl)c2Cl)C1 [Compound 42, 2-((3S,5R)-5-(2,3-dichloro-6-hydroxyphenyl)pyrrolidin-3-yl)-N-methylacetamide] | > 30000 nM
< 1000 nM | Oc1ccc(Cl)c(Cl)c1[C@H]1C[C@@H](Cc2cc[nH]n2)CN1 [Compound 55, 2-((2R,4S)-4-((1H-pyrazol-3-yl)methyl)pyrrolidin-2-yl)-3,4-dichlorophenol] | > 10000 nM
< 1000 nM | O=C(C[C@H]1CN[C@@H](c2c(O)ccc(Cl)c2Cl)C1)N1CC(CO)C1 [Compound 60, 2-((3S,5R)-5-(2,3-dichloro-6-hydroxyphenyl)pyrrolidin-3-yl)-1-(3-(hydroxymethyl)azetidin-1-yl)ethan-1-one] | –
< 1000 nM | O=C(C[C@H]1CN[C@@H](c2c(O)ccc(Cl)c2Cl)C1)N1CCC[C@H](O)C1 [Compound 59, 2-((3S,5R)-5-(2,3-dichloro-6-hydroxyphenyl)pyrrolidin-3-yl)-1-((S)-3-hydroxypiperidin-1-yl)ethan-1-one] | –
< 1000 nM | O=C(C[C@H]1CN[C@@H](c2c(O)ccc(Cl)c2Cl)C1)N1CC[C@H]1CO [Compound 68, 2-((3S,5R)-5-(2,3-dichloro-6-hydroxyphenyl)pyrrolidin-3-yl)-1-((S)-2-(hydroxymethyl)azetidin-1-yl)ethan-1-one] | > 100000 nM
< 100 nM | C[C@H](O)CNC(=O)C[C@H]1CN[C@@H](c2c(O)ccc(Cl)c2Cl)C1 [Compound 65, 2-((3S,5R)-5-(2,3-dichloro-6-hydroxyphenyl)pyrrolidin-3-yl)-N-((S)-2-hydroxypropyl)acetamide] | > 100000 nM
< 1000 nM | CC1(CO)CN(C(=O)C[C@H]2CN[C@@H](c3c(O)ccc(Cl)c3Cl)C2)C1 [Compound 69, 2-((3S,5R)-5-(2,3-dichloro-6-hydroxyphenyl)pyrrolidin-3-yl)-1-(3-(hydroxymethyl)-3-methylazetidin-1-yl)ethan-1-one] | –
< 1000 nM | CC[C@@H](C(N)=O)[C@H]1CN[C@@H](c2c(O)ccc(Cl)c2Cl)C1 (single isomer, unassigned) [Compound 46] | > 100000 nM
< 1000 nM | CC(C)(O)CNC(=O)C[C@H]1CN[C@@H](c2c(O)ccc(Cl)c2Cl)C1 [Compound 66, 2-((3S,5R)-5-(2,3-dichloro-6-hydroxyphenyl)pyrrolidin-3-yl)-N-(2-hydroxy-2-methylpropyl)acetamide] | > 100000 nM
< 1000 nM | C[C@@H](CO)NC(=O)C[C@H]1CN[C@@H](c2c(O)ccc(Cl)c2Cl)C1 [Compound 62, 2-((3S,5R)-5-(2,3-dichloro-6-hydroxyphenyl)pyrrolidin-3-yl)-N-((S)-1-hydroxypropan-2-yl)acetamide] | –
< 100 nM | NC(=O)[C@H](C1CC1)[C@H]1CN[C@@H](c2c(O)ccc(Cl)c2Cl)C1 (single isomer, unassigned) [Compound 78] | –
< 1000 nM | C[C@@]1(CC(N)=O)CN[C@@H](c2c(O)ccc(Cl)c2Cl)C1 [Compound 50, 2-[5R-(2,3-dichloro-6-hydroxyphenyl)-3-methylpyrrolidin-3-yl]acetamide] | –
< 1000 nM | CC[C@H](C(N)=O)[C@@H]1CN[C@@H](c2c(O)ccc(Cl)c2Cl)C1 (single isomer, unassigned) [Compound 72] | –
< 1000 nM | NC(=O)C[C@@H]1CN[C@@H](c2c(O)ccc(Cl)c2Cl)C1 [Compound 32, 2-[(3R,5R)-5-(2,3-dichloro-6-hydroxyphenyl)pyrrolidin-3-yl]acetamide] | –
